Measurements published in PMC4948010 (ACS Medicinal Chemistry Letters, 2016).

Columns and labels:
[1] = biological target: T1, human recombinant GK (Homo sapiens, UniProt P35557); experiment: Glucokinase EC50 assay; format: biochemical; conditions: compared with the other acyclic C5 analogues of Table 1
T1 sequence (P35557 1-465): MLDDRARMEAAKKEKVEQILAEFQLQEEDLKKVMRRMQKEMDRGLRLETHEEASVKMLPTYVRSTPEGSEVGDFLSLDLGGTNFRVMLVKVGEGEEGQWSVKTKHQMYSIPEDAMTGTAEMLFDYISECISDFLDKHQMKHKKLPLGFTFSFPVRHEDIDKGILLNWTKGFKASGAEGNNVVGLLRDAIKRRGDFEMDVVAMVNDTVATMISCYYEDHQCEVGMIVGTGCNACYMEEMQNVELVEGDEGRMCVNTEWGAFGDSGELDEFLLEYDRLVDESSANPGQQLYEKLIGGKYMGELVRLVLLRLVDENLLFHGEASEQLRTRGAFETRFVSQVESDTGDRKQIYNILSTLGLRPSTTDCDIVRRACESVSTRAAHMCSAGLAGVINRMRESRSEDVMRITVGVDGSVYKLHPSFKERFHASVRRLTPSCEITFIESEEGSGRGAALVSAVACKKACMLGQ

[2] = test system: ob/ob mice; experiment: Oral glucose tolerance test in ob/ob mice; format: in vivo, mouse; conditions: doses 3, 10 and 30 mg/kg oral
[3] = Intrinsic clearance in rat liver microsomes; format: in vitro ADME
[4] = test system: male Sprague–Dawley rats; experiment: Fed blood glucose test in male Sprague-Dawley rats; format: in vivo, rat; conditions: doses 3, 10, 30 and 100 mg/kg oral
[5] = Metabolic identification studies; format: in vitro ADME

**Q.** Which loss in potency [1] does the source give for `CNC(=O)Nc1cc(Oc2cncc(C)c2)c(C(C)CO)cn1` (centres unmarked) [Compound 5] here?
**A.** The loss in potency was “approximately 5 fold”.

**Q.** With `CNC(=O)Nc1cc(Oc2cncc(C)c2)c([C@H]2C[C@@H](O)C2)cn1` [Compound 7] as the molecule, how does the “blood glucose levels during an oral glucose tolerance test” value [2] read?
**A.** The value was “dose-proportional decrease”.

**Q.** And the microsomal CLint [3]?
**A.** The microsomal CLint was 24 µL/min/mg.

**Q.** With `CNC(=O)Nc1cc(Oc2cncc(OC)c2)c([C@H]2CCCOC2)cn1` [Compound 21] as the molecule, how does the blood glucose levels [4] read?
**A.** The blood glucose levels was “dose-proportional decrease”.

**Q.** And the “site of oxidation (metabolic identification)” value [5]?
**A.** The value was “THP ring as one site of oxidation”.
